Test: gradient 5% acetonitrile 3 min, to 50% in 2 min, to 85% in 15 min, held 3 min, 100 µL/min
Conditions: column: Zorbax Extend-C18 2.1 x 50 mm; eluents: water / acetonitrile, 0.1% formic acid
In short: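 In both positive and negative ionization mode, a quadrupole time-of-flight mass spectrometer coupled to HPLC analyzed pure standards run in mixtures of ~100 molecules. The Zorbax Extend-C18 column (2.1 × 50 mm, 1.8 μm) was operated at 100 μL/min with water and acetonitrile, each containing 0.1% formic acid. The dead volume was 40 μL and the dwell volume 900 μL. Retention time came from adduct peaks that were computationally picked and individually inspected by hand.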

In order of rising RP-LC retention time:
1. Cc1ccn2c(=O)c(NC(=O)c3ccco3)c(C)nc2c1  544 s
2. CC(=O)c1cccc(NC(=O)N2CCc3nc[nH]c3C2)c1  556 s
3. Cc1nc(-c2nnc(NC(=O)c3cnccn3)o2)cs1  567 s
4. O=C1NC2C(=CC(O)C(O)C2O)c2cc3c(cc21)OCO3 (stereo unspecified)  568 s
5. Cn1c(CC2CCN(C(=O)c3ccccc3Cl)C2)nc2cccnc21 (stereo unspecified)  572 s
6. COc1ccc(N2CCN(C(=O)c3ccc(S(=O)(=O)N4CCCC4)cc3)CC2)nn1  579 s
7. CC(C(=O)NN1CCOCC1)n1nc(-c2ccco2)ccc1=O (stereo unspecified)  584 s
8. Nc1nc(N2CCCC2)nc2ccccc12  592 s
9. COc1cc(C)c(C(C)C)cc1S(=O)(=O)NCc1ccco1  594 s
10. COc1ccc(N2CCN(C(=O)CCC(=O)N3CCCn4nc(C)cc43)CC2)cc1  606 s
11. CCC1CN2C=NC(N3CCN(C(=O)NCc4cccc(OC)c4)CC3)=CC2=N1 (stereo unspecified)  614 s
12. COc1ccc(CN(Cc2cc(=O)n3ccccc3n2)CC(C)C)cc1OC  615 s
13. CCOC(=O)Cc1csc(NC(=O)CSc2nnc3ccccn23)n1  617 s
14. Cc1oc(C2CCN(C(=O)Cn3cnc4c3c(=O)n(C)c(=O)n4C)CC2)nc1C(=O)N1CCCC1  619 s
15. COCC(C)(O)CNC(=O)Cc1cccc(C)c1 (stereo unspecified)  621 s
16. O=C(NCc1ccco1)C1CCN(c2cc(N3CCCCC3)ncn2)CC1  632 s
17. CC1=CC2=C(C=O)C(=O)[C@](C)(O)[C@@H](O)C2=CO1  636 s
18. Cc1nc(Nc2ccc(Br)cn2)sc1C(=O)N1CCC(C(N)=O)CC1  642 s
19. COc1ccc(NC(=O)N2C[C@@H](F)C[C@H]2C(=O)N2CCCCC2)cc1OC  643 s
20. CCCc1nc2ccc(CCC(=O)Nc3cc(OC)cc(OC)c3)cc2[nH]1  657 s
21. CCOC(=O)N1CCN(C(=O)CSc2ncnc3c2nnn3CC)CC1  657 s
22. COc1ccc(NC(=O)Cn2nc3c4ccccc4ncn3c2=O)cc1Cl  674 s
23. COc1cc([C@@H]2c3cc4c(cc3[C@H](O)[C@@H](CO)[C@@H]2C(=O)NCc2ccc(C)o2)OCO4)cc(OC)c1OC  674 s
24. COc1cccc(-c2nnc(N)o2)c1  674 s
25. O=C(Cn1nc2n(c1=O)CCCC2)NCCc1ccc(Cl)cc1  678 s
26. CCCNC(=O)C1CCN(c2ccc(SCC(=O)Nc3ccc(C)cc3F)nn2)CC1  679 s
27. Cn1nc(C(=O)N2CCCCC2)c2c1CCN(C(=O)CCC(=O)NC1CCCCC1)C2  681 s
28. O=C(CC1=C2CCCCC2NC1=O)Nc1ccccc1 (stereo unspecified)  681 s
29. Cc1sc2cc(C(=O)NC(C)(C)C)[nH]c2c1CN1CCCCC1  681 s
30. Cc1cc2[nH]c(C(=O)Nc3ccccc3F)c(CN3CCOCC3)c2s1  686 s
31. COCc1nc(C2CCN(C(=O)C3CCCC3)C2)no1 (stereo unspecified)  688 s
32. Cc1ccc2c(=O)c(C(=O)N3CCCCC3)cn(CC(=O)NC3CCCC3)c2n1  694 s
33. CCSc1nnc(NC(=O)Cn2c(-c3cnccn3)nc3ccccc32)s1  701 s
34. COc1cccc(N2CCn3c2nc2c3c(=O)n(CC(=O)O)c(=O)n2C)c1  702 s
35. C=C(C)Cn1c(C2CC(=O)N(c3ccccc3Br)C2)nc2ccccc21 (stereo unspecified)  708 s
36. Cc1cc(=O)n(CC(=O)Nc2ccc(Cl)cc2)c(N2CCCCC2)n1  708 s
37. CC(C)(C)NC(=O)N1CCC(CNC(=O)CSc2ccc(F)cc2)CC1  715 s
38. CCSc1nc(NC(C)C)c2cnn(CCNC(=O)Cc3c(C)noc3C)c2n1  716 s
39. CC1(C)[C@@H]2CC[C@@]1(C(=O)O)C(=O)C2  717 s
40. O=C1CCCc2c1cc(C(=O)N1CCOCC1)c(=O)n2-c1ccc(C(F)(F)F)cc1  723 s
41. O=C(c1ccc2[nH]ccc2c1)N1C[C@@H]2C[C@H]1C[C@@H]2NS(=O)(=O)c1ccccc1  730 s
42. Cc1cc(F)ccc1NC(=O)C1CCN(S(=O)(=O)c2cn(C(C)C)cn2)CC1  732 s
43. COc1ccc(C(=O)N2CCC3(CC2)NC(=O)c2ccc(Cl)cc2N3)cc1  735 s
44. CCOc1ccccc1C1NC(=O)N(CC(=O)NC2CCCC2)C2=C1C(=O)OC2 (stereo unspecified)  737 s
45. CCOC(=O)c1c(S(=O)(=O)N2CCC(C(=O)Nc3nccs3)CC2)c(C)n(C)c1C  740 s
46. CCC1(O)CCC12CCN(C(=O)CC(C)C)CC2 (stereo unspecified)  744 s
47. CN(C)S(=O)(=O)c1ccc(-c2nnc(C(=O)NC3CCN(Cc4ccccc4)CC3)o2)cc1  754 s
48. CCOc1ccc(NC(=O)c2cc3c(=O)n(CC)ccc3n2C)cc1  757 s
49. Cc1ccc(N2C(=O)CN(S(C)(=O)=O)CC2(C)C(=O)NCc2ccccc2)cc1C (stereo unspecified)  758 s
50. Cn1nc(C(=O)N2C[C@@H]3C[C@H]2C[C@@H]3NC(=O)c2cccs2)c2ccccc21  766 s
51. COc1cc(C2CC(=O)N(CC(=O)NCC3CCCO3)c3ccccc3S2)cc(OC)c1OC (stereo unspecified)  772 s
52. COCCn1cc(CCNC(=O)Nc2cc(C)cc(C)c2)c2cccnc21  776 s
53. O=C(O)c1cccn2c(=O)c3cc(Cl)ccc3nc12  782 s
54. CCc1nn2c(=O)cc(CSc3nnc(-c4cccc(C)c4)o3)nc2s1  800 s
55. COc1ccc(OC)c(NC(=O)NCC(=O)N2CCc3ccccc32)c1  804 s
56. COc1cccc(C(=O)Nc2ccc3c(c2)Sc2ncccc2C(=O)N3C)c1OC  816 s
57. CCn1cc(S(=O)(=O)Nc2cc(OC)cc(OC)c2)c2cccnc21  817 s
58. CCc1nnc(-c2ccc(NC(=O)c3cc4ccccc4o3)cc2)o1  826 s
59. Cc1cccc(NC(=O)NC2CCN(c3ccc(F)cc3)C2=O)c1 (stereo unspecified)  830 s
60. CC(NC(=O)CCCn1c(=O)c2cccn2c2ccc(Br)cc21)C(=O)N1CCCCC1 (stereo unspecified)  832 s
61. CC(C)OCCCNC(=O)c1nnc(-c2ccc(S(=O)(=O)N3CCCC3)cc2)o1  843 s
62. COc1ccc(NC(=O)N(C)CCc2noc(COc3ccccc3F)n2)cc1  845 s
63. NC(=O)C(=O)c1cn(Cc2ccccc2)c2ccccc12  872 s
64. Cc1ccccc1CNC(=O)C1=C2CCCN2c2ccccc2S1(=O)=O  873 s
65. CCc1ccc(NC(=O)Cn2nc(N3CCOCC3)c3ccccc3c2=O)cc1  874 s
66. COc1ccc(-c2nc3cnccn3c2Nc2ccccc2C)cc1  886 s
67. COc1ccc(NC(=O)N2CCC(n3c(C(F)(F)F)nc4cccnc43)CC2)cc1  898 s
68. CCC(C)NC(=O)c1cc(COc2ccc(NC(=O)C(C)(C)C)cc2)on1 (stereo unspecified)  900 s
69. Cc1ccc(CNC(=O)N(C)CCc2noc(-c3ccc(F)cc3)n2)cc1  915 s
70. COc1ccc(-n2c(=O)n(C)c(=O)c3cc(C(=O)Nc4ccc(C)cc4)cnc32)cc1  918 s
71. COC(=O)C1=CN(c2ccc(Cl)cc2)c2cc(F)ccc2S1(=O)=O  919 s
72. COc1ccc(-c2csc(NC(=O)CS(=O)(=O)c3ccc(Cl)cc3)n2)cc1OC  926 s
73. O=c1c2c(CO)c(-c3ccccc3)nn2ccn1CCc1ccccc1  926 s
74. C=CCn1c(=O)c2ccccc2n(Cc2nc(-c3ccc(OC)c(OC)c3)no2)c1=O  937 s
75. CCOc1ccccc1NC(=O)C1CCN(S(=O)(=O)c2ccc3c(c2)NC(=O)C(CC)O3)CC1 (stereo unspecified)  953 s
76. CCOc1ccccc1-c1noc(Cn2c(=O)n(-c3ccc(F)cc3)c(=O)c3sccc32)n1  956 s
77. COc1cccc(-c2noc(C3CCCN3C(=O)Nc3ccccc3)n2)c1 (stereo unspecified)  961 s
78. COc1ccc(C(C)NC(=O)c2c(C)sc3ccn(CC(C)C)c(=O)c23)cc1 (stereo unspecified)  962 s
79. Cc1ccc(NC(=O)Cn2cccc2-c2nnc(C3CCC3)o2)c(C)c1  963 s
80. CC(C)Cn1cc(S(=O)(=O)Nc2cc(F)cc(F)c2)c2cccnc21  994 s
81. Cc1ccc(C(=O)N2CCN(c3ccc(-c4noc(C5CC5)n4)cc3)CC2)s1  1010 s
82. CCC(c1cccs1)N1C(=O)[C@H]2CN(S(=O)(=O)c3ccc(F)c(F)c3)C[C@H]2C1=O (stereo partly specified)  1020 s
83. Cn1cc(-c2nc(C(=O)Nc3ccccc3F)cs2)c2cccnc21  1040 s
84. Cc1oc2ccn(Cc3cccc(F)c3)c(=O)c2c1C(=O)NC1CCCC1  1060 s
85. Cc1cc(C(=O)N(Cc2ccco2)c2nc3ccccc3s2)on1  1100 s
86. Cn1cccc1C(=O)C(=O)Nc1ccc(Cl)c(C(F)(F)F)c1  1130 s
87. Cc1ccc(NS(=O)(=O)c2cc(-c3cc(C(F)(F)F)on3)cs2)c(Br)c1  1160 s
88. CCCN1C(=O)COc2ccc(-c3noc(-c4cncc(Br)c4)n3)cc21  1160 s
89. COc1ccc(OCc2nc(-c3ccc(-c4csc(C)n4)cc3)no2)cc1  1170 s
90. O=C(NCCc1ccccc1)c1c(O)c2sccc2n(Cc2ccccc2)c1=O  1270 s
91. Cc1sc2ncnc(N3CCCC(C)C3)c2c1C(=O)Nc1ccc(Br)cc1 (stereo unspecified)  1310 s
